Measurements as given in PubChem BioAssay (NCI).
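GI50 is the concentration that inhibits growth by half. TGI is the concentration that stops growth completely.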

Assays:
Assay in all cases: DTP human tumour cell line panel, 384-well format; in the data active means GI50 below about 0.43 µM; inactive means the rest
[1] = system: SF-268 CNS
[2] = system: SK-MEL-28 melanoma
[3] = system: HS 578T breast
[4] = system: COLO 205 colon
[5] = system: DU-145 prostate
[6] = system: HL-60(TB) leukemia
[7] = system: RPMI-8226 leukemia
[8] = system: RXF 393 renal
[9] = system: MALME-3M melanoma
[10] = system: UACC-257 melanoma
[11] = system: 786-0 renal
[12] = system: SK-MEL-2 melanoma
[13] = system: HCT-15 colon
[14] = system: U251 glioblastoma
[15] = system: MDA-MB-468 breast
[16] = system: NCI-H522 lung
[17] = system: SK-MEL-5 melanoma
[18] = system: SNB-19 CNS
[19] = system: SNB-75 CNS
[20] = system: MDA-MB-231 breast
[21] = system: CCRF-CEM leukemia
[22] = system: M14 melanoma
[23] = system: SW-620 colon
[24] = system: SF-295 CNS
[25] = system: A549 NSCLC
[26] = system: SN12C renal
[27] = system: TK-10 renal
[28] = system: IGROV1 ovarian
[29] = system: OVCAR-3 ovarian
[30] = system: NCI-H460 NSCLC
[31] = system: EKVX NSCLC
[32] = system: UO-31 renal
[33] = system: HT29 colon
[34] = system: NCI-H322M lung
[35] = system: HCT-116 colon
[36] = system: OVCAR-5 ovarian
[37] = system: CAKI-1 renal
[38] = system: KM12 colon
[39] = system: PC-3 prostate
[40] = system: SK-OV-3 ovarian
[41] = system: HCC-2998 colon
[42] = system: HOP-62 NSCLC
[43] = system: OVCAR-4 ovarian
[44] = system: MOLT-4 leukemia
[45] = system: NCI-H226 lung
[46] = system: HOP-92 NSCLC
[47] = system: MDA-MB-435 melanoma
[48] = system: T-47D breast
[49] = system: K-562 leukemia
[50] = system: ACHN renal
[51] = system: NCI/ADR-RES ovarian
[52] = system: SF-539 CNS
[53] = system: MCF7 breast
[54] = system: NCI-H23 lung
[55] = system: LOX IMVI melanoma
[56] = system: SR leukemia
[57] = system: UACC-62 melanoma
[58] = system: A498 renal
[59] = system: BT-549 breast

CC(C)=CCC/C(C)=C/CC/C(C)=C/CSc1ccccc1C(=O)O
inactive: GI50 [1] > 100 µM | GI50 [2] > 100 µM | GI50 [3] > 100 µM | GI50 [4] > 100 µM | GI50 [5] > 100 µM | GI50 [6] 83.7 µM | GI50 [7] 47.9 µM | GI50 [8] 70.4 µM | GI50 [9] > 100 µM | GI50 [10] > 100 µM | GI50 [11] > 100 µM | GI50 [12] > 100 µM | GI50 [13] 73.3 µM | GI50 [14] > 100 µM | GI50 [15] > 100 µM | GI50 [16] 16.2 µM | GI50 [17] > 100 µM | GI50 [18] > 100 µM | GI50 [19] > 100 µM | GI50 [20] > 100 µM | GI50 [21] 45.2 µM | GI50 [22] > 100 µM | GI50 [23] > 100 µM | GI50 [24] > 100 µM | GI50 [25] 90.1 µM | GI50 [26] > 100 µM | GI50 [27] > 100 µM | GI50 [28] > 100 µM | GI50 [29] > 100 µM | GI50 [30] > 100 µM | GI50 [31] > 100 µM | GI50 [32] > 100 µM | GI50 [33] > 100 µM | GI50 [34] > 100 µM | GI50 [35] > 100 µM | GI50 [36] > 100 µM | GI50 [37] > 100 µM | GI50 [38] > 100 µM | GI50 [39] > 100 µM | GI50 [40] > 100 µM | GI50 [41] > 100 µM | GI50 [42] > 100 µM | GI50 [43] > 100 µM | GI50 [44] 51.3 µM | GI50 [45] > 100 µM | GI50 [46] > 100 µM | GI50 [47] > 100 µM | GI50 [48] > 100 µM | GI50 [49] > 100 µM | GI50 [50] > 100 µM | GI50 [51] > 100 µM | GI50 [52] > 100 µM | GI50 [53] > 100 µM | GI50 [54] > 100 µM | GI50 [55] > 100 µM | GI50 [56] 54.2 µM | GI50 [57] > 100 µM | GI50 [58] > 100 µM | GI50 [59] > 100 µM
43.6 µM: TGI [16]
> 100 µM: TGI [1] | TGI [2] | TGI [3] | TGI [4] | TGI [5] | TGI [6] | TGI [7] | TGI [8] | TGI [9] | TGI [10] | TGI [11] | TGI [12] | TGI [13] | TGI [14] | TGI [15] | TGI [17] | TGI [18] | TGI [19] | TGI [20] | TGI [21] | TGI [22] | TGI [23] | TGI [24] | TGI [25] | TGI [26] | TGI [27] | TGI [28] | TGI [29] | TGI [30] | TGI [31] | TGI [32] | TGI [33] | TGI [34] | TGI [35] | TGI [36] | TGI [37] | TGI [38] | TGI [39] | TGI [40] | TGI [41] | TGI [42] | TGI [43] | TGI [44] | TGI [45] | TGI [46] | TGI [47] | TGI [48] | TGI [49] | TGI [50] | TGI [51] | TGI [52] | TGI [53] | TGI [54] | TGI [55] | TGI [56] | TGI [57] | TGI [58] | TGI [59]
